Results as given in patent US11253498B2, “Pharmaceutical composition for treatment of bone-related disease” (Nexyon Biotech Co., Ltd., priority 2017, dated 2022).

Tests used:
preosteoblast cells [1] = test: Differentiation into osteoblasts, alizarin red S staining, cholesterol sulphate with or without Formula 2 (Example 2-2); type: cell-based, mice; conditions: FIG. 8
Experimental: The calvarium was removed from 1- to 3-day-old mice, and then subjected to enzymatic treatment with 1 mg/ml collagenase and 2 mg/ml dispase, to obtain preosteoblast cells. […] Then, differentiation into osteoblasts was induced. Replacement of the medium for differentiation was performed at 2- to 3-day intervals and differentiation was induced for a total of 14 to 21 days. Alizarin red S staining was used to evaluate the differentiation into osteoblasts, thereby quantitatively evaluate the degree of mineralized nodule production. The differentiated cells were fixed in 10% neutral formalin at 4° C. for 20 minutes, and then stained with 1.36% alizarin red solution (pH 4.1 to 4.3) for 40 minutes. The stained pattern was photographed or scanned. […] The degree of differentiation into osteoblasts is illustrated in FIG. 8.

preosteoblast cells [2] = test: Osteoblast mineralized nodules, alizarin red staining (Example 1-2); type: cell-based, mice; conditions: vs negative control (0 μM); for amount of pigments colored in the nodules (differentiation of preosteoblast cells): alizarin red staining, 21 days, 0 to 50 μM, FIG. 1; for effect on the differentiation into osteoblasts (quantified, absorbance 570 nm): concentration series, FIG. 2 and FIG. 3
Experimental: In order to isolate preosteoblast cells, the calvarium was removed from 1- to 3-day-old mice, and then preosteoblast cells were obtained via a process in which the calvarium was subjected to treatment with 1 mg/ml collagenase and 2 mg/ml dispase.
Here, the medium for differentiation induction was replaced with fresh medium at 2- to 3-day intervals, and differentiation induction was performed for a total of 21 days. In order to identify the differentiation into osteoblasts, alizarin red staining was performed. Differentiation-induced cells were fixed by being incubated with 10% neutral formalin at 4° C. for 20 minutes, and then stained by being incubated with 1.36% alizarin red solution (pH 4.1 to 4.3) for 40 minutes. The results are illustrated in FIG. 1.
The results obtained by performing quantification with tauroursodeoxycholic acid, deoxycholic acid, or taurocholic acid are illustrated in FIG. 3.

[3] = system: ovary-extracted mouse model; test: Drug administration in ovary-extracted mouse model, femur micro-CT (Example 2-1); type: in vivo, C57BL/6 female mice; conditions: 5 mg/kg oral, once a day, five days a week, 4 weeks; vs OVX group receiving vehicle only; FIG. 7
Excerpt: Twenty-four 8-week-old C57BL/6 female mice were randomly divided into three groups, that is, control group (sham), ovary-extracted group (OVX), and OVX+Formula 2 group obtained by administering the compound of Formula 2 to the ovary-extracted group, each group consisting of 8 mice. All three groups were anesthetized using zoletil and rompun. Then, the OVX and OVX+Formula 2 groups were subjected to ovary extraction, and then sutured. The control group was subjected to ovary exposure, and then sutured without ovarian removal. Osteoporosis was induced for 4 weeks.
Starting from 4 weeks after ovarian extraction, on five days a week and once a day, the control group and the OVX group orally received 200 μl of vehicle (tetrahydrofuran:PEG-400:water=1:6:3 in volume), and the OVX+Formula 2 group orally received 200 μl obtained by mixing 5 mg/kg of compound of Formula 2 with a vehicle.
After oral administration for 4 weeks, all mice were sacrificed and the femur was extracted therefrom. The extracted femur was fixed in 10% neutral formalin. Photographs were taken at 7.1 μm voxel size using Skyscan 1173 micro-CT machine, and then bone density was analyzed by CTAn program. The results are illustrated in FIG. 7.

SMILES	amount of pigments colored in the nodules (differentiation of preosteoblast cells) (preosteoblast cells [2])	effect on the differentiation into osteoblasts (quantified, absorbance 570 nm) (preosteoblast cells [2])	further results
CC(C)CCC[C@@H](C)[C@H]1CC[C@H]2[C@@H]3CC=C4C[C@@H](OS(=O)(=O)O)CC[C@]4(C)[C@H]3CC[C@]12C [Formula 1, [(3S,8S,9S,10R,13R,14S,17R)-10,13-dimethyl-17-[(2R)-6-methylheptan-2-yl]-2,3,4,7,8,9,11,12,14,15,16,17-dodecahydro-1H-cyclopenta[a]phenanthren-3-yl] hydrogen sulphate]	–	–	differentiation into osteoblasts (preosteoblast cells [1]; 0 to 50 μM cholesterol sulphate alone): increases the differentiation into osteoblasts in a dose-dependent manner
C[C@H](CCC(=O)NCCS(=O)(=O)O)[C@H]1CC[C@H]2[C@@H]3[C@H](O)C[C@@H]4C[C@H](O)CC[C@]4(C)[C@H]3C[C@H](O)[C@]12C [taurocholic acid]	no effect	no significant difference	–
C[C@H](CCC(=O)NCCS(=O)(=O)O)[C@H]1CC[C@H]2[C@@H]3[C@@H](O)C[C@@H]4C[C@H](O)CC[C@]4(C)[C@H]3CC[C@]12C [tauroursodeoxycholic acid]	no effect	no significant difference	–
C[C@H](CCC(=O)O)[C@H]1CC[C@H]2[C@@H]3CC[C@@H]4C[C@H](O)CC[C@]4(C)[C@H]3C[C@H](O)[C@]12C [deoxycholic acid]	no effect	–	–
NS(=O)(=O)Oc1ccc2c3c(c(=O)oc2c1)CCCCC3 [Formula 2, 6-oxo-6,7,8,9,10,11-hexahydrocyclohepta[c]chromen-3-yl sulfamate]	–	–	differentiation into osteoblasts (preosteoblast cells [1]; 5 μM compound of Formula 2 alone): does not increase; differentiation into osteoblasts (preosteoblast cells [1]; 5 μM compound of Formula 2 in combination with 0 to 50 μM cholesterol sulphate): further enhances an effect of cholesterol sulphate; increase in the volume of trabecular bone [3]: 90%
